Test results from patent publication US7785828B1 (priority 2003, dated 2010).
Where two headings read alike, the source gives them in different places.

Experiments:
Assay type in all cases: cell-based
Mycosphaerella fijiensis = system: Mycosphaerella fijiensis
Fusarium graminearum [1] = system: Fusarium graminearum
Septoria tritici = system: Septoria tritici
Fusarium graminearum [2] = system: Fusarium graminearum
[3] = Table 2B (Dm-AMP1 based libraries), improvement compared to reference defensin protein (Rs-AFP2 for Table 2B [sic])
[4] = Table 2C (mixed diversity library), improvement compared to reference defensin protein DmAMP

Row | Substance | Antifungal activity, Mycosphaerella fijiensis (improvement compared to DmAMP1) (Mycosphaerella fijiensis) | Antifungal activity, Fusarium graminearum (improvement compared to DmAMP1) (Fusarium graminearum [1]) | Antifungal activity, Septoria tritici (improvement compared to DmAMP1) (Septoria tritici) | Activity (1): antifungal activity of the NP against Fusarium graminearium (Fusarium graminearum [2]; [3]) | other results
1 | DGVKLCEKASQTWSGNCGNTKHCDTQCRNWEGAKHGACHKRNGKWKCFCYFNC (Defensin like) [L7-174] | + (key: + indicating 1- to 5-fold improvement compared to DmAMP1; ++ indicating >5- to 10-fold improvement; +++ indicating >10-fold improvement) | +++ (key: + indicating 1- to 5-fold improvement compared to DmAMP1; ++ indicating >5- to 10-fold improvement; +++ indicating >10-fold improvement) | ++ (key: + indicating 1- to 5-fold improvement compared to DmAMP1; ++ indicating >5- to 10-fold improvement; +++ indicating >10-fold improvement) |  | 
2 | NLCERASKTWSGNCGNTKHCDTQCKNWEGAKHGACHKRSGKWMCFCYFNC (Defensin like) [L3-144] | + (key: + indicating 1- to 5-fold improvement compared to DmAMP1; ++ indicating >5- to 10-fold improvement; +++ indicating >10-fold improvement) | ++ (key: + indicating 1- to 5-fold improvement compared to DmAMP1; ++ indicating >5- to 10-fold improvement; +++ indicating >10-fold improvement) | + (key: + indicating 1- to 5-fold improvement compared to DmAMP1; ++ indicating >5- to 10-fold improvement; +++ indicating >10-fold improvement) |  | 
3 | NLCEKASKTWSGNCGNTGHCDTQCKNWEGAKHGACHVRNGKHKCFCYFNC (Defensin like) [L5-12] | + (key: + indicating 1- to 5-fold improvement compared to DmAMP1; ++ indicating >5- to 10-fold improvement; +++ indicating >10-fold improvement) | ++ (key: + indicating 1- to 5-fold improvement compared to DmAMP1; ++ indicating >5- to 10-fold improvement; +++ indicating >10-fold improvement) | ++ (key: + indicating 1- to 5-fold improvement compared to DmAMP1; ++ indicating >5- to 10-fold improvement; +++ indicating >10-fold improvement) |  | 
4 | NLCEKASKTWSGNCGNTKHCDTQCRNWEGAKHGACHKRNGKWKCFCYFNC (Defensin like) [L9-46] | ++ (key: + indicating 1- to 5-fold improvement compared to DmAMP1; ++ indicating >5- to 10-fold improvement; +++ indicating >10-fold improvement) | +++ (key: + indicating 1- to 5-fold improvement compared to DmAMP1; ++ indicating >5- to 10-fold improvement; +++ indicating >10-fold improvement) | +++ (key: + indicating 1- to 5-fold improvement compared to DmAMP1; ++ indicating >5- to 10-fold improvement; +++ indicating >10-fold improvement) |  | 
5 | NLCEKASKTWSGNCGNTKHCDNQCKNWEGAAHGACHVRNGKHKCFCYFNC (Defensin like) [L6-70] | + (key: + indicating 1- to 5-fold improvement compared to DmAMP1; ++ indicating >5- to 10-fold improvement; +++ indicating >10-fold improvement) | +++ (key: + indicating 1- to 5-fold improvement compared to DmAMP1; ++ indicating >5- to 10-fold improvement; +++ indicating >10-fold improvement) | + (key: + indicating 1- to 5-fold improvement compared to DmAMP1; ++ indicating >5- to 10-fold improvement; +++ indicating >10-fold improvement) |  | 
6 | NLCEKASKTWTGNCGNTKHCDTQCKNWEGAKHGACHKRNGKWKCFCYFNC (Defensin like) [L9-45] | + (key: + indicating 1- to 5-fold improvement compared to DmAMP1; ++ indicating >5- to 10-fold improvement; +++ indicating >10-fold improvement) | + (key: + indicating 1- to 5-fold improvement compared to DmAMP1; ++ indicating >5- to 10-fold improvement; +++ indicating >10-fold improvement) | + (key: + indicating 1- to 5-fold improvement compared to DmAMP1; ++ indicating >5- to 10-fold improvement; +++ indicating >10-fold improvement) |  | 
7 | NLCERASKTWSGNCGNTKHCDTQCRNWEGAAHGACHVRNGKHKCFCYFNC (NLCERASKTWSGNCGNTKHCDTQCKNWEGAAHGACHVRNGKHKCFCYFNC; Defensin like) [L6-57] | ++ (key: + indicating 1- to 5-fold improvement compared to DmAMP1; ++ indicating >5- to 10-fold improvement; +++ indicating >10-fold improvement) | +++ (key: + indicating 1- to 5-fold improvement compared to DmAMP1; ++ indicating >5- to 10-fold improvement; +++ indicating >10-fold improvement) | + (key: + indicating 1- to 5-fold improvement compared to DmAMP1; ++ indicating >5- to 10-fold improvement; +++ indicating >10-fold improvement) |  | 
8 | NLCEKASKTWTGNCGNTKHCDNQCRNWEGAKHGACHVRSGKHKCFCYFNC (Defensin like) [L9-22] | + (key: + indicating 1- to 5-fold improvement compared to DmAMP1; ++ indicating >5- to 10-fold improvement; +++ indicating >10-fold improvement) | +++ (key: + indicating 1- to 5-fold improvement compared to DmAMP1; ++ indicating >5- to 10-fold improvement; +++ indicating >10-fold improvement) | +++ (key: + indicating 1- to 5-fold improvement compared to DmAMP1; ++ indicating >5- to 10-fold improvement; +++ indicating >10-fold improvement) |  | 
9 | ELCERASLTWTGNCGNTKHCDTQCKSWEGAKHGACHKRSGKWKCFCYFNC (Defensin like) [L3-96] |  |  |  | + (+ indicates a 1- to 5-fold improvement in activity compared to a reference defensin protein) | 
10 | NLCERASKTWTGNCGNTKHCDTQCKNWEGAKHGACHVRNGKWKCFCYFNC (Defensin like) [L6-77] |  |  |  | ++ (++ indicates a >5- to 10-fold improvement) | 
11 | --QKLCERASKTWTGHCGNTKHCDKQCKNWEKAKHGACHVRNGKWKCFCYFNC (Defensin like) [L7-34] |  |  |  |  | Activity (1): antifungal activity of the NP against Fusarium graminearium (Fusarium graminearum [2]; [4]): + (+ indicates a 1- to 5-fold improvement in activity compared to a reference defensin protein)
12 | ---NLCERPSKTWTGHCGNTKHCDKQCKSWEGAKHGACHVRSGKWKCFCYFNC (Defensin like) [L7-26] |  |  |  |  | Activity (1): antifungal activity of the NP against Fusarium graminearium (Fusarium graminearum [2]; [4]): ++ (++ indicates a >5- to 10-fold improvement)
13 | NLCERASKTWTGNCGNTKHCDNQCRNWEGAKHGACHVRSGKWKCFCYFNC (Defensin like) [L10-79] |  |  |  | ++ (++ indicates a >5- to 10-fold improvement) | 
14 | --QKLCEKASQTWTGHCGNTKHCDNQCRNWEKAAHGACHVRNGKWKCFCYFNC (Defensin like) [L7-19] |  |  |  |  | Activity (1): antifungal activity of the NP against Fusarium graminearium (Fusarium graminearum [2]; [4]): + (+ indicates a 1- to 5-fold improvement in activity compared to a reference defensin protein)
15 | NLCERASKTWTGNCGNTKHCDNQCKNWEGAKHGACHKRSGKWKCFCYFNC (Defensin like) [L10-25] |  |  |  | + (+ indicates a 1- to 5-fold improvement in activity compared to a reference defensin protein) | 
16 | NLCERASKTWTGNCGNTKHCDTQCRNWEGAKHGACHVRNGKWKCFCYFNC (Defensin like) [L5-46] |  |  |  | + (+ indicates a 1- to 5-fold improvement in activity compared to a reference defensin protein) | 
17 | DGVKLCEKPSQTWTGHCGNTKHCDKQCKNWEGAKHGACHKRNGKWKCFCYFNC (Defensin like) [L7-178] |  |  |  |  | Activity (1): antifungal activity of the NP against Fusarium graminearium (Fusarium graminearum [2]; [4]): ++ (++ indicates a >5- to 10-fold improvement)
18 | NLCERASKTWTGNCGNTKHCDNQCRNWEGAKHGACHVRSGKHKCFCYFNC (Defensin like) [L6-20] |  |  |  | ++ (++ indicates a >5- to 10-fold improvement) | 
19 | NLCERASKTWTGNCGNTKHCDNQCKSWEGAKHGACHKRNGKWKCFCYFNC (Defensin like) [L10-51] |  |  |  | ++ (++ indicates a >5- to 10-fold improvement) | 
20 | NLCERASKTWSGNCGNTKHCDNQCRNWEGAAHGACHVRNGKHKCFCYFNC (Defensin like) [L6-59] | + (key: + indicating 1- to 5-fold improvement compared to DmAMP1; ++ indicating >5- to 10-fold improvement; +++ indicating >10-fold improvement) |  | + (key: + indicating 1- to 5-fold improvement compared to DmAMP1; ++ indicating >5- to 10-fold improvement; +++ indicating >10-fold improvement) |  | 
21 | NLCERASKTWTGNCGNTKHCDTQCKSWEGAKHGACHKRSGKWKCFCYFNC (Defensin like) [L5-21] |  |  |  | + (+ indicates a 1- to 5-fold improvement in activity compared to a reference defensin protein) | 
22 | DGVKLCERPSQTWSGNCGNTKHCDKQCRNWEKAKHGACHKRNGKWKCFCYFNC (Defensin like) [L7-123] |  |  |  |  | Activity (1): antifungal activity of the NP against Fusarium graminearium (Fusarium graminearum [2]; [4]): + (+ indicates a 1- to 5-fold improvement in activity compared to a reference defensin protein)
23 | --QKLCERPSQTWTGHCGNTKHCDTQCKSWEGAKHGACHKRNGKWKCFCYFNC (Defensin like) [L7-44] |  |  |  |  | Activity (1): antifungal activity of the NP against Fusarium graminearium (Fusarium graminearum [2]; [4]): + (+ indicates a 1- to 5-fold improvement in activity compared to a reference defensin protein)
24 | NLCEKASKTWTGNCGNTKHCDNQCRSWEGAKHGACMKRSGKWKCFCYFNC [L10-76] |  |  |  | ++ (++ indicates a >5- to 10-fold improvement) | 
25 | NLCERASKTWTGNCGNTKHCDNQCRNWEGAKHGACHVRNGKHKCFCYFNC (Defensin like) [L6-35] |  |  |  | ++ (++ indicates a >5- to 10-fold improvement) | 
26 | NLCERASKTWTGNCGNTKHCDTKCRSWESAKHGACHKRNGKWKCFCYFNC (Defensin like) [L3-46] |  |  |  | ++ (++ indicates a >5- to 10-fold improvement) | 
